Source: US5994349A, “3-carboalkoxy-2, 3-dihydro-1H-phenothiazin-4[10H]-one derivatives” (priority 1997, dated 1999)
Like-named read-outs stand apart in the source and are kept apart here.

Legend:
[1] = test system: neurotoxicity (rotorod); assay: rotorod toxicity, oral rat (Phase VIA/VIB); type: in vivo, male Sprague-Dawley rats; settings: rat oral, 30 mg/kg
Description: (§1) Initial evaluations for anticonvulsant activity include phases I, VIA and VIB test procedures. These tests are performed intraperitoneally in male Carworth Farms No. 1 (CF1) mice, weighing 18-25 g (Phase I) or orally in male Sprague-Dawley rats, weighing 100-150 g (Phases VIA and VIB). The evaluation is based on three tests: maximal electroshock (MES), subcutaneous (scMet), and the rotorod test for neurological toxicity (Tox). (a) Anticonvulsant Screening Project, Antiepileptic Drug Development Program, National Institutes of Health, DHEW Publ (NIH)(U.S.) 1978, NIH 78-1093. (b) Porter, R. J.; Cereghino, J. J.; Gladding, G. D.; Hessie, B. J.; Kupferberg, H. J.; Scoville, B.; White, B. G. Antiepileptic drug development program. Cleveland Clin. Q. 1984, 51, 293-305. (c) Krall, R. L.; Penry, J. K.; White, B. G.; Kupferberg, H. J.; Swinyard, E. A. Antiepileptic drug development: II. Anticonvulsant drug screening. Epilepsia 1978, 19, 400-428. In the MES test, maximal electroshock seizures are elicited with a 60- cycle alternating current of 50 mA intensity (5-7 times that necessary to elicit minimal electroshock seizures) delivered via corneal electrodes for 0.2 seconds. A drop of 0.9% saline is placed on the eye prior to application of the electrodes in order to […]. Abolition of the hind limb tonic extension component of the seizure is defined as protection and results are expressed as the number of animals protected/the number of animals tested.
The rotorod test is used to evaluate neurotoxicity. The animal is placed on a 1 inch diameter knurled plastic rod rotating at 6 rpm. Normal mice can remain on a rod rotating at this speed indefinitely.
(§2) To differentiate the results between different rodent species, 4b (X=H), as well as 4a (R=H), 4e (R=Cl), 4f (R=Cl) and 4i (R=CH3) are subsequently evaluated for oral (po) activity in the rat (Phase VIA or VIB).

[2] = test system: maximal electroshock seizures; assay: maximal electroshock (MES) test, oral rat (Phase VIA/VIB); type: in vivo, male Sprague-Dawley rats; settings: 30 mg/kg
Description: as §1, §2

[3] = test system: pentylenetetrazol seizures; assay: subcutaneous pentylenetetrazol (scMet) test, Phase I, mice ip; type: in vivo, male Carworth Farms No. 1 (CF1) mice; settings: Mus musculus, mice ip
Description: as §1
In the sc MET test, eighty-five mg/kg of pentylenetetrazol, which induces seizures in more than 95% of mice, is administered as a 0.5% solution subcutaneously in the posterior midline. The animal is observed for 30 minutes. Failure to observe even a threshold seizure (a single episode of clonic spasms of at least 5 seconds duration) is defined as protection and the results are expressed as the number of animals protected/ the number of animals tested. […]

[4] = test system: maximal electroshock seizures; assay: maximal electroshock (MES) test, Phase I, mice ip; type: in vivo, male Carworth Farms No. 1 (CF1) mice; settings: for responders at 30 mg/kg / responders at 100 mg/kg / responders at 300 mg/kg / responders at 10 mg/kg: Mus musculus
Description: as §1
In phase I, compounds are suspended in 0.5% aqueous methylcellulose and are administered intraperitoneally at three dosage levels (30, 100, and 300 mg/kg) with anticonvulsant activity and motor impairment noted 30 min and 4 h (and in some cases 2 h and 6 h) after administration.

[5] = test system: neurotoxicity (rotorod); assay: rotorod test for neurological toxicity (Tox), Phase I, mice ip; type: in vivo, male Carworth Farms No. 1 (CF1) mice
Description: as §1
The rotorod test is used to evaluate neurotoxicity. The animal is placed on a 1 inch diameter knurled plastic rod rotating at 6 rpm. Normal mice can remain on a rod rotating at this speed indefinitely. […]

[6] = 0.5 h, 30 min, read-out: scMet 30 min
[7] = 0.5 h, 30 min, read-out: scMet 30 min (converted)
[8] = 4 h, read-out: scMet 4 h (converted)
[9] = 100 mg/kg, 4 h, read-out: MES 4 h (converted)
[10] = 4 h, read-out: MES 4 h (converted)
[11] = 0.5 h, 30 min, read-out: MES 30 min (converted)
[12] = 0.5 h, 100 mg/kg, 30 min, read-out: MES 30 min (converted)

Compound	Tox ([1]; 0.25 h)	Tox ([1]; 0.50 h)	responders at 30 mg/kg [3, 6] [%]	responders at 100 mg/kg [3, 6] [%]	responders at 300 mg/kg [3, 7] [%]	responders at 30 mg/kg ([3]; 4 h, read-out: scMet 4 h) [%]	responders at 100 mg/kg ([3]; 4 h, read-out: scMet 4 h) [%]	responders at 300 mg/kg [3, 8] [%]	responders at 30 mg/kg ([4]; 4 h, read-out: MES 4 h) [%]	responders at 100 mg/kg [4, 9] [%]	responders at 300 mg/kg [4, 10] [%]	responders at 30 mg/kg [4, 11] [%]	responders at 100 mg/kg [4, 12] [%]	responders at 300 mg/kg [4, 11] [%]	Tox 30 min ([5]; 30 mg/kg)	Tox 4 h ([5]; 30 mg/kg)	Tox 30 min ([5]; 100 mg/kg)	Tox 4 h ([5]; 100 mg/kg)	Tox 30 min ([5]; 300 mg/kg)	Tox 4 h ([5]; 300 mg/kg)	also measured
COC(=O)[C@@H]1C(=O)C2=C(C[C@H]1C)Nc1ccccc1S2 (relative stereo) [Compound 4a, 3-Carbomethoxy-2-methyl-2,3-dihydro-1H-phenothiazin-4[10H] -one]	0/4	0/4	0	0	0	0	0	0	0	33.3	100	0	100	100	0/4	0/2	0/8	0/4	1/4	0/2	Tox ([1]; 1.00 h): 0/4; Tox ([1]; 2.00 h): 0/4; Tox ([1]; 4.00 h): 0/4; responders at 30 mg/kg ([2]; 0.25 h): 0%; responders at 30 mg/kg ([2]; 1.00 h): 50%; responders at 30 mg/kg ([2]; 2.00 h): 25%; responders at 30 mg/kg ([2]; 4.00 h): 50%; responders at 30 mg/kg ([2]; 0.5 h, 0.50 h): 25%
C[C@@H]1CC2=C(Sc3ccccc3N2)C(=O)[C@H]1C(=O)OC(C)(C)C (relative stereo) [Compound 4c, 3-Carbo-ter-butoxy-2-methyl-2,3-dihydro-1H-phenothiazin-4[10H]-one]			0	0	0	0	0	0	0	33.3	100	0	0	0	0/4	0/2	0/8	0/4	0/4	0/2	MES animals protected at 2 h ([4]; 100 mg/kg, 2 h): 1/3; MES animals protected at 6 h ([4]; 100 mg/kg, 6 h): 0/3; toxic at 2 h ([5]; 100 mg/kg, 2 h): 1/3; toxic at 6 h ([5]; 100 mg/kg, 6 h): 0/3
COC(=O)[C@@H]1C(=O)C2=C(C[C@H]1C)Nc1ccc(Cl)cc1S2 (relative stereo) [Compound 4e, 7-Chloro-3-carbomethoxy-2-methyl-2,3-dihydro-1H-phenothiazin-4[10H] -one]	0/4	0/4	0	0	0	0	0	0	0	66.7	100	0	0	0	0/4	0/2	0/8	0/4	0/4	0/2	Tox ([1]; 1.00 h): 0/4; Tox ([1]; 2.00 h): 0/4; Tox ([1]; 4.00 h): 0/4; responders at 30 mg/kg ([2]; 0.25 h): 0%; responders at 30 mg/kg ([2]; 1.00 h): 75%; responders at 30 mg/kg ([2]; 2.00 h): 75%; responders at 30 mg/kg ([2]; 4.00 h): 50%; responders at 30 mg/kg ([2]; 0.5 h, 0.50 h): 0%
C[C@@H]1CC2=C(Sc3cc(Cl)ccc3N2)C(=O)[C@H]1C(=O)OC(C)(C)C (relative stereo) [Compound 4g, 7-Chloro-3-carbo-ter-butoxy-2-methyl-2,3-dihydro-1H-phenothiazin-4[10H]-one]			0	0	0	0	0	0	0	33.3	100	0	0	0	0/4	0/2	0/8	0/4	0/4	0/2	
COC(=O)[C@@H]1C(=O)C2=C(C[C@H]1C)Nc1ccc(C)cc1S2 (relative stereo) [Compound 4h]			0	0	0	0	0		0	33.3	100	0	0	100	0/4	0/2	0/8	0/4	0/3	0/1	MES animals protected at 0.25 h ([4]; 100 mg/kg, 0.25 h): 2/3
CCOC(=O)[C@@H]1C(=O)C2=C(C[C@H]1C)Nc1ccc(Br)cc1S2 (relative stereo) [Compound 4k, 7-Bromo-3-carbethoxy-2-methyl-2,3-dihydro-1H-phenothiazin-4[10H]-one]			0	0	0	0	0	0	0	0	100	0	0	100	0/8	0/4	0/4	0/2	0/8	0/4	responders at 10 mg/kg [3, 6]: 0%; responders at 10 mg/kg ([3]; 4 h, read-out: scMet 4 h): 0%; responders at 10 mg/kg ([4]; 4 h, read-out: MES 4 h): 0%; responders at 10 mg/kg ([4]; 0.5 h, 30 min, read-out: MES 30 min): 0%; Tox 30 min ([5]; 10 mg/kg): 0/4; Tox 4 h ([5]; 10 mg/kg): 0/2
